Data set [1] concerns A549. The data set can be described thus: Induction of apoptosis in human A549 cells assessed as necrotic cells at 1 uM in presence of cisplatin by annexin V-PI based flow cytometric analysis (reference value: 1.6%). Format: functional. On the technique in general: In flow cytometry, cells or beads pass a laser one at a time.
Data set [2] relates to A549. The experiment in a line: Induction of cell cycle arrest in human A549 cells assessed as accumulation of cells at G0/G1 phase at 1 uM for 24 hrs by Click-iT EdU Alexa Fluor 647 flow cytometric assay kit analysis (reference value: 61%). The data set is classed as functional.
For data set [3], the system named is NCI-H1373. The data set can be described thus: Induction of cell cycle arrest in human NCI-H1373 cells assessed as accumulation of cells at G2/M phase at 0.5 uM for 24 hrs by Click-iT EdU Alexa Fluor 647 flow cytometric assay kit analysis (reference value: 13%). The data set is classed as functional.
Data set [4] relates to NCI-H1373. The data set can be described thus: Induction of cell cycle arrest in human NCI-H1373 cells assessed as accumulation of cells at G0/G1 phase at 0.5 uM for 24 hrs by Click-iT EdU Alexa Fluor 647 flow cytometric assay kit analysis (reference value: 40%). Format: functional.
The subject of data set [5] is NCI-H1373. The data set can be described thus: Induction of cell cycle arrest in human NCI-H1373 cells assessed as accumulation of cells at G2/M phase at 0.1 uM for 24 hrs by Click-iT EdU Alexa Fluor 647 flow cytometric assay kit analysis (reference value: 13%). Format: functional.
The subject of data set [6] is A549. The experiment in a line: Induction of apoptosis in human A549 cells assessed as viable cells at 2.5 uM for 24 hrs by annexin V-PI staining based flow cytometric analysis (reference value: 96%). Format: functional. The note with it: read-out: Activity.
In data set [7] the test system is A549. The experiment in a line: Induction of apoptosis in human A549 cells assessed as viable cells at 0.5 uM for 24 hrs by annexin V-PI staining based flow cytometric analysis (reference value: 96%). Format: functional. The note with it: read-out: Activity.
The subject of data set [8] is NCI-H460. The data set can be described thus: Downregulation of c-MYC mRNA expression level in human NCI-H460 cells at 0.1 to 1 uM for 24 hrs by qRT-PCR analysis. The data set is classed as functional, cell-based. The settings on record: dose 0.1-1 µM. In general terms: Real-time PCR tracks product formation cycle by cycle.
Data set [9] has as its system NCI-H441. The data set can be described thus: Downregulation of c-MYC protein expression level in human NCI-H441 cells at 1 uM for 24 hrs by […] analysis. Format: functional, cell-based.
The nature of data set [10]: Toxicity in SCID mouse xenografted with human A549 cells assessed as body weight loss administered at 80 mg/kg, ip for 28 days relative to control. The note with it: in vivo, 672 h, time 28 day. The data set is classed as organism-based.
The test system of data set [11] is DV-90. The experiment in a line: Downregulation of […] gene in human DV-90 cells after 24 hrs by microarray profiling analysis. Format: functional, cell-based.
Data set [12] concerns NCI-H1373. The experiment in a line: Downregulation of XIAP mRNA expression level in human NCI-H1373 cells at 0.1 to 1 uM for 24 hrs by qRT-PCR analysis. The data set is classed as functional, cell-based. The note with it: dose 0.1-1 µM.
Data set [13] deals with NCI-H1373. The data set can be described thus: Induction of TRAIL dependent apoptosis in human NCI-H1373 cells assessed as late apoptotic cells at 1 uM by annexin V-PI staining based flow cytometric analysis (reference value: 8.3%). Format: functional.
The test system of data set [14] is A549. The experiment in a line: Induction of cell cycle arrest in human A549 cells assessed as accumulation of cells at S phase at 0.5 uM for 24 hrs by Click-iT EdU Alexa Fluor 647 flow cytometric assay kit analysis (reference value: 35%). Format: functional.
In data set [15] the test system is NCI-H1373. The data set can be described thus: Antiproliferative activity against human NCI-H1373 cells at 500 to 2500 nM in presence of TNF by cell titre glo assay. The data set is classed as functional, cell-based. The note with it: dose 500-2500 nM.
For data set [16], the system named is A549. The experiment in a line: Induction of TRAIL dependent apoptosis in human A549 cells by annexin V-PI staining based flow cytometric analysis. Format: functional, cell-based.
The test system of data set [17] is A549. The data set can be described thus: Induction of cell cycle arrest in human A549 cells assessed as accumulation of cells at G2/M phase at 0.5 uM for 24 hrs by Click-iT EdU Alexa Fluor 647 flow cytometric assay kit analysis (reference value: 3%). The data set is classed as functional.
Data set [18] concerns NCI-H2030. The experiment in a line: Downregulation of FLIP mRNA expression level in human NCI-H2030 cells at 0.1 to 1 uM for 24 hrs by qRT-PCR analysis. The data set is classed as functional, cell-based. The note with it: dose 0.1-1 µM.
Data set [19] has as its system DV-90. The experiment in a line: Induction of cell cycle arrest in human DV-90 cells assessed as accumulation of cells at G2/M phase at 0.25 uM for 24 hrs by Click-iT EdU Alexa Fluor 647 flow cytometric assay kit analysis (reference value: 24%). The data set is classed as functional.
Data set [20] concerns NCI-H23. The data set can be described thus: Downregulation of FLIP mRNA expression level in human NCI-H23 cells at 0.1 to 1 uM for 24 hrs by qRT-PCR analysis. The data set is classed as functional, cell-based. The settings on record: dose 0.1-1 µM.
In data set [21] the test system is NCI-H2030. The data set can be described thus: Downregulation of c-MYC protein expression level in human NCI-H2030 cells at 1 uM for 24 hrs by […] analysis. Format: functional, cell-based.
In data set [22] the test system is NCI-H2347. The experiment in a line: Downregulation of c-MYC protein expression level in human NCI-H2347 cells at 1 uM for 24 hrs by […] analysis. Format: functional, cell-based.
For data set [23], the system named is DV-90. The data set can be described thus: Induction of cell cycle arrest in human DV-90 cells assessed as accumulation of cells at G0/G1 phase at 0.25 uM for 24 hrs by Click-iT EdU Alexa Fluor 647 flow cytometric assay kit analysis (reference value: 44%). Format: functional.
Data set [24] has as its system A549. The experiment in a line: Induction of apoptosis in human A549 cells assessed as early apoptotic cells at 0.5 uM for 24 hrs by annexin V-PI staining based flow cytometric analysis (reference value: 0.2%). The data set is classed as functional.
In data set [25] the test system is DV-90. The data set can be described thus: Induction of cell cycle arrest in human DV-90 cells assessed as accumulation of cells at G2/M phase at 0.1 uM for 24 hrs by Click-iT EdU Alexa Fluor 647 flow cytometric assay kit analysis (reference value: 21%). The data set is classed as functional.
For data set [26], the system named is A549. The data set can be described thus: Induction of apoptosis in human A549 cells assessed as necrotic cells at 0.5 uM for 24 hrs by annexin V-PI staining based flow cytometric analysis (reference value: 0.9%). The data set is classed as functional.
Data set [27] relates to DV-90. The data set can be described thus: Induction of cell cycle arrest in human DV-90 cells assessed as accumulation of cells at G0/G1 phase at 0.5 uM for 24 hrs by Click-iT EdU Alexa Fluor 647 flow cytometric assay kit analysis (reference value: 47%). The data set is classed as functional.
In data set [28] the test system is NCI-H1373. The experiment in a line: Induction of apoptosis in human NCI-H1373 cells assessed as late apoptotic cells at 2.5 uM for 24 hrs by annexin V-PI staining based flow cytometric analysis (reference value: 22.3%). The data set is classed as functional.
Data set [29] relates to DV-90. The data set can be described thus: Induction of cell cycle arrest in human DV-90 cells assessed as accumulation of cells at G0/G1 phase at 1 uM for 24 hrs by Click-iT EdU Alexa Fluor 647 flow cytometric assay kit analysis (reference value: 47%). Format: functional.
Data set [30] concerns NCI-H460. The experiment in a line: Induction of apoptosis in human NCI-H460 cells assessed as necrotic cells at 0.5 uM for 24 hrs by annexin V-PI staining based flow cytometric analysis (reference value: 3.2%). The data set is classed as functional.
In data set [31] the test system is DV-90. The data set can be described thus: Induction of cell cycle arrest in human DV-90 cells assessed as accumulation of cells at S phase at 0.5 uM for 24 hrs by Click-iT EdU Alexa Fluor 647 flow cytometric assay kit analysis (reference value: 30%). The data set is classed as functional.
Data set [32] deals with NCI-H460. The data set can be described thus: Induction of cell cycle arrest in human NCI-H460 cells assessed as accumulation of cells at G0/G1 phase at 0.25 uM for 24 hrs by Click-iT EdU Alexa Fluor 647 flow cytometric assay kit analysis (reference value: 45%). Format: functional.
Data set [33] has as its system DV-90. The experiment in a line: Induction of cell cycle arrest in human DV-90 cells assessed as accumulation of cells at S phase at 0.1 uM for 24 hrs by Click-iT EdU Alexa Fluor 647 flow cytometric assay kit analysis (reference value: 30%). The data set is classed as functional.

Activity calls are given as the source filed them. No cut-off for these calls is given here.

As for `Cc1sc2c(c1C)C(c1ccc(Cl)cc1)=N[C@@H](CC(=O)OC(C)(C)C)c1nnc(C)n1-2`, the Activity in data set [1] worked out at 10.3%; in data set [2], 64%; in data set [3], 22%; in data set [4], 63%; in data set [5], 17%; in data set [10], 7%. The Activity was found to be 14% in [13]; 33% in data set [14]; 3% in data set [17]; 31% in data set [19]; 45% in [23]. The viability at 2.5 µM in [6] was determined as 97%. The viability at 0.5 µM in data set [7] was determined as 97.2%. In addition, the result in data set [8], in data set [9], in data set [11], in [12], in data set [15] and in [16] was Active. The outcome in [18], in [20], in [21] and in [22] was Active.

Take `Cc1sc2c(c1C)C(c1ccc(Cl)cc1)=N[C@@H](CC(=O)Nc1ccc(O)cc1)c1nnc(C)n1-2` [BIRABRESIB]: the Activity in data set [24] is 0.1%; in data set [25] it was 29%; in data set [26], 0.7%; in data set [27] it was 56%; in data set [28], 20.3%; in [29], 60%. Further, the Activity in [30] stood at 4.7%.

As to `CCNC(=O)C[C@@H]1N=C(c2ccc(Cl)cc2)c2cc(OC)ccc2-n2c(C)nnc21` [MOLIBRESIB], the Activity in data set [31] was found to be 25%; in [32], 43%; in data set [33], 27%.

The record behind these values is ChEMBL document CHEMBL5712891, “Inhibition of BET bromodomain-dependent XIAP and FLIP expression sensitizes KRAS-mutated NSCLC to pro-apoptotic agents” (Cell Death Dis, 2016).
